Source: the OligoGym collection
HELM strings list units from the 5' end as sugar, base in round brackets, then linkage (d deoxyribose, r ribose, m 2'-O-methyl, p phosphodiester). Strings are as the collection lists them; they lack the last nucleoside at the 3' end of the tested compound. [moe] = 2'-O-(2-methoxyethyl) (MOE); [sp] = phosphorothioate linkage; [m5C] = 5-methylcytosine

Biological target: LRRK2
Experiment: mouse, dose not given
Details: ASO

Compared with “RNA1{[moe](A)[sp].[moe](G)p.[moe]([m5C])p.[moe](A)p.[moe](A)[sp].d(T)[sp].d([m5C])[sp].d(A)[sp].d(T)[sp].d(T)[sp].d(G)[sp].d(G)[sp].d(T)[sp].d(A)[sp].d(G)[sp].[moe]([m5C])p.[moe](A)p.[moe](T)[sp].[moe](A)}$$$$ (last 3' nucleoside missing)”, “RNA1{[moe](A)[sp].[moe](G)p.[moe](G)p.[moe](A)p.[moe](G)[sp].d(A)[sp].d(A)[sp].d(T)[sp].d(G)[sp].d(T)[sp].d(A)[sp].d(T)[sp].d(A)[sp].d(T)[sp].d(G)[sp].[moe]([m5C])p.[moe](T)p.[moe](T)[sp].[moe]([m5C])}$$$$ (last 3' nucleoside missing)” is higher in 3 h FOB score: 5 score 0-7 for the first, 6 score 0-7 for the second.

Going from “RNA1{[moe]([m5C])[sp].[moe](T)p.[moe]([m5C])p.[moe](A)p.[moe](T)[sp].d(A)[sp].d(T)[sp].d([m5C])[sp].d(T)[sp].d(A)[sp].d(A)[sp].d(A)[sp].d(G)[sp].d(A)[sp].d([m5C])[sp].[moe]([m5C])p.[moe](G)p.[moe]([m5C])[sp].[moe](A)}$$$$ (last 3' nucleoside missing)” to “RNA1{[moe]([m5C])[sp].[moe](T)p.[moe](T)p.[moe](T)p.[moe]([m5C])[sp].d(A)[sp].d([m5C])[sp].d(T)[sp].d([m5C])[sp].d(A)[sp].d(T)[sp].d(A)[sp].d(G)[sp].d(G)[sp].d(G)[sp].[moe](A)p.[moe](A)p.[moe](T)[sp].[moe](G)}$$$$ (last 3' nucleoside missing)”, the 3 h FOB score rises from 1 score 0-7 to 2.5 score 0-7.

“RNA1{[moe](G)[sp].[moe](T)p.[moe](T)p.[moe](T)p.[moe]([m5C])[sp].d(A)[sp].d(T)[sp].d(T)[sp].d([m5C])[sp].d(G)[sp].d(G)[sp].d(T)[sp].d(T)[sp].d(A)[sp].d(T)[sp].[moe](A)p.[moe](A)p.[moe](G)[sp].[moe](G)}$$$$ (last 3' nucleoside missing)” and “RNA1{[moe](G)[sp].[moe](T)p.[moe](T)[sp].[moe](T)[sp].[moe]([m5C])[sp].d(A)[sp].d(T)[sp].d(T)[sp].d([m5C])[sp].d(G)[sp].d(G)[sp].d(T)[sp].d(T)[sp].d(A)[sp].d(T)[sp].[moe](A)[sp].[moe](A)p.[moe](G)[sp].[moe](G)}$$$$ (last 3' nucleoside missing)” are the same in 3 h FOB score: 7 score 0-7 for the first, 7 score 0-7 for the second.

Compared with “RNA1{[moe]([m5C])[sp].[moe](T)p.[moe](G)[sp].[moe](T)[sp].[moe]([m5C])[sp].d(A)[sp].d([m5C])[sp].d([m5C])[sp].d(T)[sp].d(T)[sp].d(T)[sp].d([m5C])[sp].d([m5C])[sp].d([m5C])[sp].d(A)[sp].[moe](A)[sp].[moe](T)p.[moe](G)[sp].[moe]([m5C])}$$$$ (last 3' nucleoside missing)”, “RNA1{[moe](G)[sp].[moe](T)p.[moe](T)[sp].[moe](A)[sp].[moe](A)[sp].d([m5C])[sp].d(G)[sp].d([m5C])[sp].d(A)[sp].d([m5C])[sp].d(T)[sp].d(T)[sp].d(A)[sp].d(A)[sp].d([m5C])[sp].[moe](A)[sp].[moe](A)p.[moe](T)[sp].[moe](A)}$$$$ (last 3' nucleoside missing)” is lower in 3 h FOB score: 3 score 0-7 for the first, 2 score 0-7 for the second.

First: RNA1{[moe](G)[sp].[moe](T)p.[moe](G)p.[moe](A)p.[moe](A)[sp].d(G)[sp].d([m5C])[sp].d(A)[sp].d([m5C])[sp].d(T)[sp].d(G)[sp].d(A)[sp].d(A)[sp].d(T)[sp].d([m5C])[sp].[moe]([m5C])p.[moe](A)p.[moe](T)[sp].[moe](A)}$$$$ (last 3' nucleoside missing)
Second: RNA1{[moe](G)[sp].[moe]([m5C])p.[moe](T)p.[moe](G)p.[moe]([m5C])[sp].d(T)[sp].d([m5C])[sp].d(A)[sp].d(T)[sp].d(A)[sp].d(T)[sp].d([m5C])[sp].d(T)[sp].d(A)[sp].d(A)[sp].[moe](A)p.[moe](G)p.[moe](A)[sp].[moe]([m5C])}$$$$ (last 3' nucleoside missing)
The 3 h FOB score of the first is higher: 6 score 0-7 for the first, 0 score 0-7 for the second.

Going from “RNA1{[moe](G)[sp].[moe]([m5C])p.[moe]([m5C])[sp].[moe](A)[sp].[moe]([m5C])[sp].d(T)[sp].d([m5C])[sp].d(A)[sp].d(T)[sp].d(G)[sp].d(A)[sp].d(G)[sp].d(G)[sp].d(A)[sp].d([m5C])[sp].[moe](T)[sp].[moe](T)p.[moe]([m5C])[sp].[moe]([m5C])}$$$$ (last 3' nucleoside missing)” to “RNA1{[moe](G)[sp].[moe](G)p.[moe](A)p.[moe]([m5C])p.[moe](T)[sp].d(T)[sp].d([m5C])[sp].d([m5C])[sp].d(A)[sp].d([m5C])[sp].d(A)[sp].d(T)[sp].d(T)[sp].d(A)[sp].d(T)[sp].[moe](T)p.[moe](G)p.[moe]([m5C])[sp].[moe](A)}$$$$ (last 3' nucleoside missing)”, the 3 h FOB score falls from 6 score 0-7 to 0 score 0-7.

First: RNA1{[moe](A)[sp].[moe](T)p.[moe](G)p.[moe]([m5C])p.[moe](A)[sp].d(G)[sp].d(T)[sp].d(T)[sp].d(T)[sp].d([m5C])[sp].d(T)[sp].d([m5C])[sp].d(T)[sp].d(A)[sp].d([m5C])[sp].[moe](T)p.[moe]([m5C])p.[moe](T)[sp].[moe](A)}$$$$ (last 3' nucleoside missing)
Second: RNA1{[moe](A)[sp].[moe](T)p.[moe]([m5C])p.[moe]([m5C])p.[moe](A)[sp].d([m5C])[sp].d(A)[sp].d(T)[sp].d(T)[sp].d(T)[sp].d([m5C])[sp].d(T)[sp].d(G)[sp].d(A)[sp].d(A)[sp].[moe](T)p.[moe]([m5C])p.[moe]([m5C])[sp].[moe]([m5C])}$$$$ (last 3' nucleoside missing)
The 3 h FOB score of the first is lower: 0 score 0-7 for the first, 4 score 0-7 for the second.

First: RNA1{[moe](T)[sp].[moe](G)p.[moe]([m5C])p.[moe](T)p.[moe](G)[sp].d([m5C])[sp].d(T)[sp].d([m5C])[sp].d(A)[sp].d(T)[sp].d(A)[sp].d(T)[sp].d([m5C])[sp].d(T)[sp].d(A)[sp].[moe](A)p.[moe](A)p.[moe](G)[sp].[moe](A)}$$$$ (last 3' nucleoside missing)
Second: RNA1{[moe](A)[sp].[moe](T)p.[moe](G)[sp].[moe](A)[sp].[moe](G)[sp].d(T)[sp].d(G)[sp].d([m5C])[sp].d(A)[sp].d(T)[sp].d(G)[sp].d(G)[sp].d([m5C])[sp].d(A)[sp].d(T)[sp].[moe]([m5C])[sp].[moe](A)p.[moe](A)[sp].[moe](A)}$$$$ (last 3' nucleoside missing)
The 3 h FOB score of the first is lower: 0 score 0-7 for the first, 6 score 0-7 for the second.

Going from “RNA1{[moe](T)[sp].[moe](G)p.[moe]([m5C])p.[moe](T)p.[moe](T)[sp].d(T)[sp].d([m5C])[sp].d(A)[sp].d(T)[sp].d(A)[sp].d(G)[sp].d([m5C])[sp].d(T)[sp].d(T)[sp].d([m5C])[sp].[moe]([m5C])p.[moe](A)p.[moe]([m5C])[sp].[moe]([m5C])}$$$$ (last 3' nucleoside missing)” to “RNA1{[moe]([m5C])[sp].[moe](T)p.[moe](T)[sp].[moe](T)[sp].[moe]([m5C])[sp].d(A)[sp].d(T)[sp].d(A)[sp].d(G)[sp].d([m5C])[sp].d(T)[sp].d(T)[sp].d([m5C])[sp].d([m5C])[sp].d(A)[sp].[moe]([m5C])[sp].[moe]([m5C])p.[moe](A)[sp].[moe]([m5C])}$$$$ (last 3' nucleoside missing)”, the 3 h FOB score rises from 0 score 0-7 to 3 score 0-7.

First: RNA1{[moe](T)[sp].[moe](A)p.[moe](A)[sp].[moe]([m5C])[sp].[moe](G)[sp].d([m5C])[sp].d(A)[sp].d([m5C])[sp].d(T)[sp].d(T)[sp].d(A)[sp].d(A)[sp].d([m5C])[sp].d(A)[sp].d(A)[sp].[moe](T)[sp].[moe](A)p.[moe](T)[sp].[moe]([m5C])}$$$$ (last 3' nucleoside missing)
Second: RNA1{[moe](T)[sp].[moe](T)p.[moe]([m5C])p.[moe](A)p.[moe](T)[sp].d(T)[sp].d([m5C])[sp].d(G)[sp].d(G)[sp].d(T)[sp].d(T)[sp].d(A)[sp].d(T)[sp].d(A)[sp].d(A)[sp].[moe](G)p.[moe](G)p.[moe]([m5C])[sp].[moe](A)}$$$$ (last 3' nucleoside missing)
The 3 h FOB score of the first is lower: 2 score 0-7 for the first, 4 score 0-7 for the second.

First: RNA1{[moe](A)[sp].[moe](A)p.[moe](T)p.[moe](G)p.[moe]([m5C])[sp].d(T)[sp].d(T)[sp].d(T)[sp].d([m5C])[sp].d(A)[sp].d(T)[sp].d(A)[sp].d(G)[sp].d([m5C])[sp].d(T)[sp].[moe](T)p.[moe]([m5C])p.[moe]([m5C])[sp].[moe](A)}$$$$ (last 3' nucleoside missing)
Second: RNA1{[moe](G)[sp].[moe](T)p.[moe]([m5C])p.[moe](A)p.[moe](A)[sp].d(A)[sp].d([m5C])[sp].d(T)[sp].d([m5C])[sp].d(T)[sp].d(T)[sp].d([m5C])[sp].d(A)[sp].d(G)[sp].d(A)[sp].[moe](G)p.[moe](T)p.[moe](T)[sp].[moe](T)}$$$$ (last 3' nucleoside missing)
The 3 h FOB score of the first is higher: 1 score 0-7 for the first, 0 score 0-7 for the second.

First: RNA1{[moe](G)[sp].[moe]([m5C])p.[moe]([m5C])p.[moe]([m5C])p.[moe](A)[sp].d(T)[sp].d(T)[sp].d(T)[sp].d([m5C])[sp].d(T)[sp].d(T)[sp].d([m5C])[sp].d(A)[sp].d(A)[sp].d([m5C])[sp].[moe](A)p.[moe](G)p.[moe](A)[sp].[moe](G)}$$$$ (last 3' nucleoside missing)
Second: RNA1{[moe](G)[sp].[moe]([m5C])p.[moe](A)p.[moe]([m5C])p.[moe](A)[sp].d([m5C])[sp].d(A)[sp].d(G)[sp].d(T)[sp].d(G)[sp].d(T)[sp].d(A)[sp].d(G)[sp].d(T)[sp].d([m5C])[sp].[moe](A)p.[moe](T)p.[moe](A)[sp].[moe]([m5C])}$$$$ (last 3' nucleoside missing)
The 3 h FOB score of the first is lower: 0 score 0-7 for the first, 2 score 0-7 for the second.

“RNA1{[moe](A)[sp].[moe](T)p.[moe](A)[sp].[moe](A)[sp].[moe](G)[sp].d(T)[sp].d(T)[sp].d(T)[sp].d([m5C])[sp].d(A)[sp].d(T)[sp].d(T)[sp].d([m5C])[sp].d(G)[sp].d(G)[sp].[moe](T)[sp].[moe](T)p.[moe](A)[sp].[moe](T)}$$$$ (last 3' nucleoside missing)” was tested, and the 3 h FOB score was 4 score 0-7.
